Results published in patent US20250313563A1, “GLYCOGEN SYNTHASE KINASE 3 INHIBITORS AND USES THEREOF” (The Broad Institute, Inc., priority 2022, published 2025).
Like-named read-outs stand apart in the source and are kept apart here.

Tests used:
[1] = target: GSK3α (GST-full length GSK3α) (Homo sapiens (Human), UniProt P49840); experiment: GSK3α TR-FRET kinase assay; assay type: biochemical; details: IC50
Protocol: (§1) TR-FRET Assay: The assay was performed in a white, 384 well, low volume, flat bottom plate (Grenier). After a 30 minute preincubation in assay buffer with the indicated concentration of compound, the kinase activity was initiated by the addition of the substrates. 1 nM GSK3α (GST-full length GSK3α [SignalChem G08-10G]) or 1 nM GSK3b (GST-full length GSK3b: [SignalChem G08-9G]) were then incubated at ambient temperature for 100 minutes in 10 μL of 50 mM Tris, pH 7.5, 20 mM MgCl2, 0.05 mM DTT, 100 μg/mL BSA and 1% DMSO, with 200 nM biotinylated peptide substrate (biotinylated and S645 phosphorylated glycogen synthase 631-650) and either 4 μM ATP (GSK3α, Table 16) or 2 μM ATP (GSK3b, Table 16) or 1 mM ATP (Table 17). The kinase activity was quenched with 2 μL of 250 mM EDTA. A 10 μL volume of 40 nM Strepavidin-d2, 2 nM Tb^2+-pSer641 antibody in TR-FRET Detection Buffer (Invitrogen) was then added. After 60 min at room temperature the plate was read on Envision plate reader using Ex: 340 nm, Em: 615 nm and […]. The normalized 665/615 Signal ratio versus log compound concentration was analyzed by XLFIT to yield IC50 values.

[2] = target: GSK3b (GST-full length GSK3b) (Homo sapiens (Human), UniProt P49841); experiment: GSK3b TR-FRET kinase assay; assay type: biochemical; details: IC50
GSK3b (GST-full length GSK3b), sequence (P49841 whole entry): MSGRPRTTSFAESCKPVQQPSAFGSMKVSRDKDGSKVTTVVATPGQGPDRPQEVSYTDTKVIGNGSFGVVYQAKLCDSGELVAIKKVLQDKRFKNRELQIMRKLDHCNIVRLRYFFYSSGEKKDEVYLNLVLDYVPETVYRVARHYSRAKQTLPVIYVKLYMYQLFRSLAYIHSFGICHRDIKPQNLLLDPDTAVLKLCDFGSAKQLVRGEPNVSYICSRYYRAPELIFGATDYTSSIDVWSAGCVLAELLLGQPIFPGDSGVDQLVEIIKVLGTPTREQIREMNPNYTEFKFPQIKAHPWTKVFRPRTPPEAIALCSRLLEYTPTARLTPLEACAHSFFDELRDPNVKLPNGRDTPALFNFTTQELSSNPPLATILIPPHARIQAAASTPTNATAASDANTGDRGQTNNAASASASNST
Protocol: as §1

[3] = 1 nM GSK3α, 4 μM ATP, 30 minute preincubation, geometric mean, read-out: GSK3-A TR-FRET BIOCHEMICAL (TR-FRET), GMean
[4] = 1 nM GSK3b, 2 μM ATP, 30 minute preincubation, geometric mean, read-out: GSK3-B TR-FRET BIOCHEMICAL (TR-FRET), GMean
[5] = read-out: GSK3-A (TR-FRET 1 mM ATP), GMean, 1 mM ATP, geometric mean
[6] = read-out: GSK3-B (TR-FRET 1 mM ATP), GMean, 1 mM ATP, geometric mean

GSK3α (GST-full length GSK3α), sequence (P49840 whole entry): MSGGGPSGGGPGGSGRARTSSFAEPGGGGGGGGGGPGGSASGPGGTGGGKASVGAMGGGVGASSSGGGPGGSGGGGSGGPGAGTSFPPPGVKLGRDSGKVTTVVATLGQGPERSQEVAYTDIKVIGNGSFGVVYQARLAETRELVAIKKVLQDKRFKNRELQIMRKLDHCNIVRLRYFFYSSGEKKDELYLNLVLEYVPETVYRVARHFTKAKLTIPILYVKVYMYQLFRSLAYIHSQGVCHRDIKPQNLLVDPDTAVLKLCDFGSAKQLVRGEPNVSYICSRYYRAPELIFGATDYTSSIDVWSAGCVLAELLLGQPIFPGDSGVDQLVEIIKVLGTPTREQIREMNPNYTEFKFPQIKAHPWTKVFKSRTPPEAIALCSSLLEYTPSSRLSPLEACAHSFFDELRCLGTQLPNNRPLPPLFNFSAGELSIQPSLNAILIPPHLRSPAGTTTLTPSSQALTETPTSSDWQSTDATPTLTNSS

Compound	IC50 [1, 3] [nM]	IC50 [2, 4] [nM]	further results
CCC1(c2cccc(N3CCOCC3)c2)C2=C(CC(C)(C)CC2=O)Nc2n[nH]cc21 (stereo not drawn) [Compound 810363]	100 to 1000	100 to 1000	
CC[C@@]1(c2cccc(N3CCOCC3)c2)C2=C(CC(C)(C)CC2=O)Nc2n[nH]cc21 [Compound 810364]	> 5000	> 5000	
CCC1(c2cccc(Br)c2)C2=C(CC(C)(C)CC2=O)Nc2n[nH]c(C(F)(F)F)c21 (stereo not drawn) [Compound 810365]	> 1670	> 1670	
CC[C@@]1(c2cccc(N3CCCCC3)c2)C2=C(CC(C)(C)CC2=O)Nc2n[nH]cc21 [Compound 810371]	> 5000	> 5000	
CC1(C)CC(=O)C2=C(C1)Nc1n[nH]cc1C2(C)c1cc(C(F)(F)F)ccc1F (stereo not drawn) [Compound 810376]	≤ 100	100 to 1000	
CC1(C)CC(=O)C2=C(C1)Nc1n[nH]cc1C2(C)c1cc(Cl)ccc1F (stereo not drawn) [Compound 810377]	100 to 1000	1000 to 5000	
CCC1(c2cccc(N3CCN(C)CC3)c2)C2=C(CC(C)(C)CC2=O)Nc2n[nH]cc21 (stereo not drawn) [Compound 810379]	> 1670	> 5000	
CCC1(c2cccc(C(F)(F)F)c2)C2=C(CC(C)CC2=O)Nc2n[nH]cc21 (stereo not drawn) [Compound 810451]	≤ 100	≤ 100	
CCC1(c2cccc(C(F)(F)F)c2)C2=C(CC(C)CC2=O)Nc2n[nH]cc21 (stereo not drawn) [Compound 810452]	100 to 1000	1000 to 5000	
CCC1(c2cccc(C(F)(F)F)c2)C2=C(CC(C)CC2=O)Nc2n[nH]cc21 (stereo not drawn) [Compound 810453]	> 5000	> 5000	
CC1(C)CC(=O)C2=C(C1)Nc1n[nH]c(Br)c1C21CCNc2ccccc21 (stereo not drawn) [Compound 810460]	1000 to 5000	> 5000	
CCC1(c2cccc(C(F)(F)F)c2)C2=C(CC(C)(C)CC2=O)Nc2n[nH]c(Br)c21 (stereo not drawn) [Compound 810464]	1000 to 5000	1000 to 5000	
CCC1(c2cccc(C(F)(F)F)c2)C2=C(CC(C)(C)CC2=O)Nc2n[nH]c(Br)c21 (stereo not drawn) [Compound 810466]	≤ 100	≤ 100	IC50 [1, 5]: ≤ 100 nM; IC50 [2, 6]: 100 to 1000 nM
CCC1(CC)C2=C(CC(C)(C)CC2=O)Nc2n[nH]cc21 [Compound 810505]			IC50 ([1]; 1 nM GSK3α, 4 μM ATP, 30 minute preincubation, Table 16, read-out: GSK3-A TR-FRET BIOCHEMICAL (TR-FRET)): 1000 to 5000 nM; IC50 ([2]; 1 nM GSK3b, 2 μM ATP, 30 minute preincubation, Table 16, read-out: GSK3-B TR-FRET BIOCHEMICAL (TR-FRET)): > 5000 nM
CCC1(c2cccc(N3CCCC3)c2)C2=C(CC(C)(C)CC2=O)Nc2n[nH]c(C(F)(F)F)c21 (stereo not drawn) [Compound 810506]	≤ 100	≤ 100	
CCC1(c2cccc(N3CCOCC3)c2)C2=C(CC(C)(C)CC2=O)Nc2n[nH]c(C(F)(F)F)c21 (stereo not drawn) [Compound 810507]	≤ 100	≤ 100	

Compound	IC50 [1, 3] [nM]	IC50 [2, 4] [nM]	further results
CC1(C)CC(=O)C2=C(C1)Nc1n[nH]c(CC(F)(F)F)c1C21CCc2c(F)cccc21 (stereo not drawn) [Compound 810590]	100 to 1000	100 to 1000	
CC1(C)CC(=O)C2=C(C1)Nc1[nH]nc(C3(C(F)(F)F)CC3)c1C21CCc2c(F)cccc21 (stereo not drawn) [Compound 810591]	100 to 1000	100 to 1000	
CCC1(c2ccccc2)C2=C(CS(=O)(=O)CC2=O)Nc2n[nH]cc21 (stereo not drawn) [Compound 811512]			IC50 ([1]; 1 nM GSK3α, 4 μM ATP, 30 minute preincubation, read-out: GSK3-A TR-FRET BIOCHEMICAL (TR-FRET)): > 5000 nM; IC50 ([2]; 1 nM GSK3b, 2 μM ATP, 30 minute preincubation, read-out: GSK3-B TR-FRET BIOCHEMICAL (TR-FRET)): > 5000 nM
Cc1[nH]nc2c1C(C)(c1cccc(C(F)(F)F)c1)C1=C(CC(C)(C)CC1=O)N2 (stereo not drawn) [Compound 811556]	≤ 100	≤ 100	
CCC1(c2cccc(OC)c2)C2=C(CC(C)CC2=O)Nc2n[nH]cc21 (stereo not drawn) [Compound 811559]	≤ 100	100 to 1000	
CCC1(c2cccc(-c3cnn(C)c3)c2)C2=C(CC(C)(C)CC2=O)Nc2n[nH]c(C(F)(F)F)c21 (stereo not drawn) [Compound 811567]	100 to 1000	100 to 1000	
CCC1(c2cccc(-c3cnn(C)c3)c2)C2=C(CC(C)CC2=O)Nc2n[nH]cc21 (stereo not drawn) [Compound 816752]	≤ 100	1000 to 5000	
CC1(C)CC(=O)C2=C(C1)Nc1n[nH]cc1C21CCc2c(Cl)cccc21 (stereo not drawn) [Compound 816795]	≤ 100	100 to 1000	
CC1(C)CC(=O)C2=C(C1)Nc1n[nH]cc1[C@@]2(C)c1cc(C(F)(F)F)ccc1F [Compound 816797]	1000 to 5000	> 5000	
CC1(C)CC(=O)C2=C(C1)Nc1n[nH]cc1[C@]2(C)c1cc(C(F)(F)F)ccc1F [Compound 816798]	≤ 100	100 to 1000	
CCC1(c2cccc(N3CCCCC3)c2)C2=C(CC(C)(C)CC2=O)Nc2n[nH]c(C(F)(F)F)c21 (stereo not drawn) [Compound 816799]	100 to 1000	1000 to 5000	
CC[C@]1(c2cccc(N3CCCCC3)c2)C2=C(CC(C)(C)CC2=O)Nc2n[nH]c(C(F)(F)F)c21 [Compound 816800]	≤ 100	≤ 100	IC50 [1, 5]: ≤ 100 nM; IC50 [2, 6]: ≤ 100 nM
CC1(C)CC(=O)C2=C(C1)Nc1n[nH]c(CC(F)(F)F)c1C21CCc2c(F)cccc21 (stereo not drawn) [Compound 816837]	1000 to 5000	100 to 1000	
CC1(C)CC(=O)C2=C(C1)Nc1n[nH]c(C3(C(F)(F)F)CC3)c1C21CCc2c(F)cccc21 (stereo not drawn) [Compound 816839]	> 5000	1000 to 5000	
CC1(C)CC(=O)C2=C(C1)Nc1n[nH]c(C3(C(F)(F)F)CC3)c1C21CCc2c(F)cccc21 (stereo not drawn) [Compound 816840]	1000 to 5000	100 to 1000	

The next lines start with results.

IC50 [1, 3] [nM]	IC50 [2, 4] [nM]	Compound	further results
≤ 100	100 to 1000	CCC1(c2cccc(COC)c2)C2=C(CC(C)(C)CC2=O)Nc2n[nH]cc21 (stereo not drawn) [Compound 810360]	
> 1670	> 5000	CCC1(c2cccc(COC)c2)C2=C(CC(C)(C)CC2=O)Nc2n[nH]cc21 (stereo not drawn) [Compound 810362]	
≤ 100	≤ 100	CC[C@@]1(c2cccc(C(C)C)c2)C2=C(CC(C)(C)CC2=O)Nc2n[nH]cc21 [Compound 810373]	IC50 [1, 5]: 100 to 1000 nM; IC50 [2, 6]: 1000 to 5000 nM
1000 to 5000	> 5000	CC[C@]1(c2cccc(C(C)C)c2)C2=C(CC(C)(C)CC2=O)Nc2n[nH]cc21 [Compound 810375]	
≤ 100	100 to 1000	CCC1(c2cccc(SC)c2)C2=C(CC(C)(C)CC2=O)Nc2n[nH]cc21 (stereo not drawn) [Compound 810508]	
> 5000	> 5000	CC[C@@]1(c2cccc(N3CCCC3)c2)C2=C(CC(C)(C)CC2=O)Nc2n[nH]cc21 [Compound 810509]	
100 to 1000	100 to 1000	CCC1(c2ccccc2)C2=C(CC3(CCC3)CC2=O)Nc2n[nH]cc21 (stereo not drawn) [Compound 811555]	
≤ 100	≤ 100	CC[C@]1(c2cccc(C3CC3)c2)C2=C(CC(C)(C)CC2=O)Nc2n[nH]cc21 [Compound 811557]	IC50 [1, 5]: 100 to 1000 nM; IC50 [2, 6]: 1000 to 5000 nM
1000 to 5000	> 5000	CC[C@@]1(c2cccc(OC)c2)C2=C(CC(C)(C)CC2=O)Nc2n[nH]cc21 [Compound 811561]	
1000 to 5000	> 5000	CC[C@@]1(c2cccc(OC(C)C)c2)C2=C(CC(C)(C)CC2=O)Nc2n[nH]cc21 [Compound 811563]	
100 to 1000	1000 to 5000	CCC1(c2ccccc2)C2=C(CC(C)(C(F)(F)F)CC2=O)Nc2n[nH]cc21 (stereo not drawn) [Compound 816796]	
> 5000	> 5000	CC[C@]1(c2ccccc2)C2=C(C[C@](C)(COC)CC2=O)Nc2n[nH]cc21 [Compound 816872]	
100 to 1000	1000 to 5000	CC[C@]1(c2ccccc2)C2=C(C[C@@](C)(COC)CC2=O)Nc2n[nH]cc21 [Compound 816873]	
> 5000	> 5000	CC[C@@]1(c2ccccc2)C2=C(C[C@](C)(COC)CC2=O)Nc2n[nH]cc21 [Compound 816874]	
100 to 1000	1000 to 5000	CC[C@@]1(c2ccccc2)C2=C(C[C@@](C)(COC)CC2=O)Nc2n[nH]cc21 [Compound 816875]	
> 5000	> 5000	CC[C@]1(c2ccccc2)C2=C(C[C@@]3(CCCOC3)CC2=O)Nc2n[nH]cc21 [Compound 816876]	
> 5000	> 5000	CC[C@]1(c2ccccc2)C2=C(C[C@]3(CCCOC3)CC2=O)Nc2n[nH]cc21 [Compound 816877]	
100 to 1000	1000 to 5000	CC[C@@]1(c2ccccc2)C2=C(C[C@@]3(CCCOC3)CC2=O)Nc2n[nH]cc21 [Compound 816878]	
100 to 1000	100 to 1000	CC[C@@]1(c2ccccc2)C2=C(C[C@]3(CCCOC3)CC2=O)Nc2n[nH]cc21 [Compound 816879]	
